Where a SMILES comes first, the peptide text is derived from it. Where no end group is shown, it is not given here. [ ]: non-standard residue; d: D form. Dopa = N[C@@H](Cc1ccc(O)c(O)c1)C(=O)O; Hyp = O=C(O)[CH]1C[CH](O)CN1; 3Hyp = 3-hydroxyproline
Legend:
[1] = system: operation pain during laser surgery; assay: Liquid spray to relieve operational pain during laser surgery; type: in vivo, human
Procedure: The enrolled subject was required to use 1 mL of a liquid spray comprising the same formulation as that described in Example 14 above in a water spray bottle on half of their face before and after a lattice laser operation to remove of facial melanin.

[2] = system: carrageenan-induced acute inflammation in subcutaneous air pouch; assay: Air pouch model, histological scores of skin biopsies; type: in vivo, C57BL/6 mice; parameters: Fibroplastic proliferation score: scale not given here; details: for Fibroplastic proliferation score / Inflammation score / Edema Score: 0.6 mg/mL, 300 μg/mouse injected into air pouch 1 hour before carrageenan; for Inflammation score: HE slices scored 1-3 points; for Edema Score: scored 1-3 points; for Sum: sum of scores, 300 μg/mouse into air pouch
Procedure: Healthy adult male C57BL/6 mice weighing between 20 and 30 g were supplied by Nanjing Biomedicial Research Institute of Nanjing University (NBRI). Prior to any experiments being conducted, mice were housed under standardized conditions (at a constant temperature of 22±2° C., with alternating 12 hour periods of light and darkness), and were fed on a standard mouse diet with water, for about a week.
General anesthesia was induced using intraperitoneal 3% chloral hydrate (Sinopharm Chemical Reagent Co., Ltd., Shanghai, China; 1 mL/10 g of body weight). The hair of the entire dorsum was shaved and depilated 1 day before sterile air injection.
Air pouches were produced by subcutaneous injection of sterile air (5 mL) into the intrascapular area of the mice. After three days, another injection of air (3 mL) was performed to maintain the pouches. In order to induce acute inflammation, three days after this final injection, animals received an injection of sterile carrageenan solution (CP Kelco, Taixing, Jiangsu Province, China. 1%, 0.5 mL; produced by adding 0.1 g of carrageenan powder into a beaker containing 10 mL of 0.9% saline solution and stirring). Mice were pre-treated with test samples or vehicle 1 hour before and 23 hours after the carrageenan injection into the subcutaneous air pouch. Animals were sacrificed 24 hours after the carrageenan injection.
Skin biopsies were taken from the air pouches. A part of the biopsy was fixed in formalin (produced by adding ultra pure water to 50 mL of a 40% formaldehyde solution (Nanchang Rain Dew Experimental Equipment Co., Ltd., Nanchang, Hubei Province, China) up to a total volume of 500 mL) and analyzed by histological embedding in paraffin wax, sectioning and staining.
After conducting some preliminary experiments to validate the model, an experiment was conducted in which mice were treated by administering test samples or vehicle in accordance with Table 1 below.
All the substances listed in Table 1 were administrated topically by directly injecting into the air pouches.
The histological specimens were analyzed and an inflammation score, an activity score (i.e. the number and density of neutrophils shown in pathological slides, indicating the degree of inflammation and, in the case of open wound and infective diseases, the degree of infection), an edema score and a fibroblast proliferation score were estimated as follows.
The HE stained slices were observed under an optical microscope and were scored (1, 2 or 3 points) according to the perceived inflammation level (in cases showing only a small amount of inflammatory cells scattered in the area-1 point (mild); in cases where many inflammatory cells were observed-2 points (moderate); and, in cases with diffuse infiltration-3 points (severe). A similar scoring system was employed for edema levels (3 points for most severe and 1 point for mild) after overall observation. Scores for neutrophils employed the same methodology as that employed for inflammatory cells.

[3] = system: full thickness skin wound on the back; assay: Acute wound model, remaining wound area; type: in vivo, C57BL/6 mice; details: for ratio of remaining wound area of initial wound: ± SD
Procedure: 6-8 weeks old male C57BL/6 mice were supplied by Changzhou Cvens Experimental Animal Co. Ltd (Changzhou, Jiangsu Province, China). Prior to any experiments being conducted, mice were housed under standardized conditions (at a constant temperature of 22±2° C., with alternating 12 hour periods of light and darkness), and were fed on a standard mouse diet with water, for about a week.
General anesthesia was induced using intraperitoneal 3% chloral hydrate (1 mL/10 g of body weight). The hair on the back was shaved by a baby hair shaver and depilated with cream. The skin area was wiped and sterilized with 75% alcohol twice.
An EMS skin biopsy punch (Electron Microscopy Sciences, P.O. Box 550, 1560 Industry Road, Hatfield, PA, USA) with a 18 mm diameter was used to make a round wound on the back. The full thickness of skin was removed and the depth of the wound reached the fascia. Wounds were left open without a suture.
The model group was given same amount of normal saline. There were 8 mice in each group.
Recombinant Human Epidermal Growth Factor (rhEGF, Shanghai Haohai Biological Technology Co. Ltd, 23/F, Shanghai, China) was purchased and prepared according to the manufacturer's instructions. The lyophilized rhEGF powder (100000 IU/vial) was dissolved in 20 mL of normal saline to make a solution with a concentration of 5000 IU/mL. The working dose of rhEGF for this experiment was 1285 IU/wound.
For this experiment, Compound A was also obtained from GL Biochem (Shanghai) Ltd. The peptide powders were stored at −20° C. and dissolved in saline at concentrations of 61.8 μg/mL (Compound A), and 61 μg/mL (Compound B). 50 μL of the solutions were applied onto the wound surfaces.
Wounds were dressed with gauze and transparent dresser after drug administration. Photographs were taken for each wound every other day from Day 0. Photos were scanned into a computer, and wound areas calculated using ImageJ image analysis software (National Institutes of Health, […]).
The unhealed wound area was expressed as a percentage of the original wound area: […]
where A0 and At refer to the initial area at Day 0 and the wound area at the date of measurement (time t), respectively.

[4] = Day 0, topical 50 μL/wound once daily, rhEGF 1285 IU/mouse, Compound A 3.09 μg/mouse, Compound B 3.05 μg/mouse

CC(N)C(=O)NC(CCCCN)C(=O)N1CCCC1C(=O)NC(CO)C(=O)NC(Cc1ccc(O)cc1)C(=O)N1CC(O)CC1C(=O)N1CC(O)CC1C(=O)NC(C(=O)NC(Cc1ccc(O)cc1)C(=O)NC(CCCCN)C(=O)O)C(C)O (stereo not drawn) [Compound B, Ala-Lys-Pro-Ser-Tyr-Hyp-Hyp-Thr-Tyr-Lys] (H-AKPSY[Hyp][Hyp]TYK-OH; configuration not given here)
pain during lattice laser operation ([1]; 1 mL liquid spray 0.5 mg/mL on half of face before and after operation): did not feel pain during the operation | pain after lattice laser operation ([1]; sprayed half of face, unsprayed half: pain lasted about 2 hours): felt no pain after the operation | Fibroplastic proliferation score [2]: 1.00 | Inflammation score [2]: 1.6 | Edema Score [2]: 1.2 | Sum [2]: 2.8 | ratio of remaining wound area of initial wound [3, 4]: 79.4 ± 3.4% | ratio of remaining wound area of initial wound ([3]; Day 1, topical once daily): 100 ± 4.5% | ratio of remaining wound area of initial wound ([3]; Day 2, topical once daily): 96.7 ± 5.6% | ratio of remaining wound area of initial wound ([3]; Day 3, topical once daily): 76.7 ± 4.8% | ratio of remaining wound area of initial wound ([3]; Day 4, topical once daily): 66.5 ± 1.4% | improvement rate ([3]; Day 4, versus model group): about 10% | ratio of remaining wound area of initial wound ([3]; Day 5, topical once daily): 55.8 ± 1.3% | ratio of remaining wound area of initial wound ([3]; Day 6, topical once daily): 51.9 ± 1.7%

Ala-Lys-Pro-Ser-Tyr-Hyp-Hyp-Thr-DOPA-Lys (AKPSY[3Hyp][Hyp]T[Dopa]K; listed as Mytilus edulis) [Compound A]
Fibroplastic proliferation score [2]: 0.2 | Inflammation score [2]: 1.6 | Edema Score [2]: 1.8 | Sum [2]: 3.4 | ratio of remaining wound area of initial wound [3, 4]: 77.2 ± 4.1% | ratio of remaining wound area of initial wound ([3]; Day 1, topical once daily): 100 ± 17.1% | ratio of remaining wound area of initial wound ([3]; Day 2, topical once daily): 81.2 ± 11.2% | ratio of remaining wound area of initial wound ([3]; Day 3, topical once daily): 74.2 ± 0.9% | ratio of remaining wound area of initial wound ([3]; Day 4, topical once daily): 60.9 ± 7.3% | ratio of remaining wound area of initial wound ([3]; Day 5, topical once daily): 50.5 ± 11.3% | ratio of remaining wound area of initial wound ([3]; Day 6, topical once daily): 45.8 ± 4.7%

Source: US20250041377A1, “PHARMACEUTICAL USE” (ENLITISA (SHANGHAI) PHARMACEUTICAL CO., LTD., priority 2018, published 2025)
